{"source": "patent US6660494B2", "about": "(priority 2000, dated 2003)", "key": {"solubility in water": {"assay": "solubility in water", "format": "physicochemical"}, "[1]": {"assay": "stability on storage, in buffer solutions and in plating media", "format": "physicochemical", "conditions": "for stability in conventional buffer solutions: citrate/hydrochloric acid, Hepes/NaOH, Tris/HCl, boric acid/potassium chloride-sodium hydroxide, pH about 4 to about 10, ambient temperature; for stability in conventional plating media: e.g. Tryptic Soy Agar; for storage stability: temperatures below about 5° C., protected from light"}, "[2]": {"target": "PC-PLC from Clostridium perfringens (Clostridium perfringens, UniProt P0C216)", "sequence (P0C216 29-398 limits assumed)": "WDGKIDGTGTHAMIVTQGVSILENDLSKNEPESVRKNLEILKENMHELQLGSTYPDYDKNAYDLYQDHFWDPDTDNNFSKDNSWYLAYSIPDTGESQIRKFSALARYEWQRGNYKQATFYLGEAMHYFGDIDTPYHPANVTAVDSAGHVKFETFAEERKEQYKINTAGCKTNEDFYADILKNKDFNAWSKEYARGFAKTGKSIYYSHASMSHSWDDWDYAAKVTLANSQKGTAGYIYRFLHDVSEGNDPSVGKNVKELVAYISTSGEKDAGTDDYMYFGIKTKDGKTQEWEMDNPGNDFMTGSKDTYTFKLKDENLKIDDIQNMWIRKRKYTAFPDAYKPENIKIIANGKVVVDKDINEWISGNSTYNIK", "format": "biochemical"}, "[3]": {"target": "PC-PLC of Clostridium perfringens (Clostridium perfringens, UniProt P0C216)", "sequence (P0C216 29-398 limits assumed)": "as above", "format": "biochemical"}}, "note": "Entries after “also recorded” stand apart in the source; their conditions may differ. Read-outs that look alike come from different tables or passages of the source."}
{"smiles": "C[N+](C)(C)CCOP(=O)([O-])Oc1c[nH]c2ccccc12", "note": "[Y-CP, 3-indoxylcholine phosphate]", "values": [{"measurement": "solubility in water", "setting": "solubility in water", "result": "freely soluble in water"}, {"measurement": "stability in conventional buffer solutions", "setting": "[1]", "result": "at least ten days"}, {"measurement": "stability in conventional plating media", "setting": "[1]", "result": "stable"}, {"measurement": "storage stability", "setting": "[1]", "result": "stable during extended periods of time"}]}
{"smiles": "C[N+](C)(C)CCOP(=O)([O-])Oc1c[nH]c2ccc(Br)c(Cl)c12", "note": "[X-CP, 5-bromo-4-chloro-3-indoxyl choline phosphate]", "values": [{"measurement": "Vmax", "setting": "[2]", "result": "93.6 nMol min^−1 (μg enzyme)^−1 and ≈ 94 μMol min^−1 (mg enzyme)^−1"}, {"measurement": "Vmax (rate of cleavage under saturating conditions)", "setting": "[2]", "result": 312, "unit": "nmol/min"}, {"measurement": "cleavage at 60° C. versus ambient temperature, times faster", "setting": "[2]", "result": "approximately 160"}, {"measurement": "factor of increase of enzymatic activity for every 10° C. of rise in temperature", "setting": "[2]", "result": "3-4"}, {"measurement": "Rate", "setting": "[2]; 22° C.", "result": 0.65, "unit": "nmol/min"}, {"measurement": "Specific Activity", "setting": "[2]; 22° C.", "result": 0.1, "unit": "µmol/min/mg"}, {"measurement": "Rate", "setting": "[2]; 41° C.", "result": 8.1, "unit": "nmol/min"}, {"measurement": "Specific Activity", "setting": "[2]; 41° C.", "result": 1.2, "unit": "µmol/min/mg"}, {"measurement": "Rate", "setting": "[2]; 46° C.", "result": 19.7, "unit": "nmol/min"}, {"measurement": "Specific Activity", "setting": "[2]; 46° C.", "result": 3.0, "unit": "µmol/min/mg"}, {"measurement": "Rate", "setting": "[2]; 51° C.", "result": 25.8, "unit": "nmol/min"}, {"measurement": "Specific Activity", "setting": "[2]; 51° C.", "result": 3.9, "unit": "µmol/min/mg"}, {"measurement": "Rate", "setting": "[2]; 55° C.", "result": 48.5, "unit": "nmol/min"}, {"measurement": "Specific Activity", "setting": "[2]; 55° C.", "result": 7.3, "unit": "µmol/min/mg"}, {"measurement": "Rate", "setting": "[2]; 60° C.", "result": 106.8, "unit": "nmol/min"}, {"measurement": "Specific Activity", "setting": "[2]; 60° C.", "result": 16.0, "unit": "µmol/min/mg"}, {"measurement": "Km", "setting": "[2]; read-out: Km (Michaelis-Menten constant)", "result": "~42", "unit": "mM"}, {"measurement": "solubility in water", "setting": "solubility in water", "result": "freely soluble in water"}, {"measurement": "additional effect on cleavage rate when these detergents/surfactants are combined with BSA", "setting": "[3]", "result": "no additional enhancement"}, {"measurement": "effect of detergent/surfactant additive on cleavage rate of the enzyme", "setting": "[3]", "result": "slight enhancement"}, {"measurement": "color of the solution", "setting": "[3]; pH 7", "result": "Bluish; also recorded: Colorless; also recorded: Pale blue; also recorded: Light blue; also recorded: Colorless*"}, {"measurement": "stability in conventional buffer solutions", "setting": "[1]", "result": "at least ten days"}, {"measurement": "stability in conventional plating media", "setting": "[1]", "result": "stable"}, {"measurement": "storage stability", "setting": "[1]", "result": "stable during extended periods of time"}]}
